This is an account of results in patent US6875761B2 (Eisai Co., Ltd., priority 1997, dated 2005).

SMILES strings stand for the structures. Where a name gives a salt, the structure may show the parent alone.

As usually defined, the melting point is the temperature, or range, at which the solid turns liquid. Molecule `CCCNC(=O)Cc1ccc(-c2cc3ccccc3c(N3CCN(CC)CC3)n2)cc1` (as salt: hydrochloride) [Example 88, 3-(4-Propylaminocarbonylmethylphenyl)-1-(4-ethylpiperazin-1-yl)isoquinoline Hydrochloride] came in with a melting point of 138 to 141 °C.

`CCN1CCN(c2nc(-c3ccc4c(c3)OCO4)cc3ccccc23)CC1` (as salt: hydrochloride) [Example 46, 3-(3,4-Methylenedioxyphenyl)-1-(4-Ethylpiperazin-1-Yl)Isoquinoline Hydrochloride] yielded a melting point of 223 to 227 °C.

Turning to `CCN1CCN(c2nc(-c3ccc(CCC(C)(C)O)c(F)c3)cc3ccccc23)CC1` (as salt: hydrochloride) [Example 416, 1-(4-ethylpiperazin-1-yl)-3-[4-(3-hydroxy-3-methylbutyl)-3-fluorophenyl]isoquinoline], the melting point lay within 206 to 207 °C.

`CCN1CCCN(c2nc(-c3ccc(OC)cc3)cc3ccccc23)CC1` (as salt: hydrochloride) returned a melting point of 124 to 125 °C.

`CCN1CCN(c2nc(-c3ccc(CCC(C)O)cc3)cc3ccoc23)CC1` (stereo not drawn) (as salt: hydrochloride) [Example 300, 7-(1-ethylpiperazin-4-yl)-5-[4-(3-hydroxybutyl)phenyl]furo[2,3-c]pyridine dihydrochloride] registered a melting point of 175 to 177 °C.

In the case of `CCC1CCN(c2nc(-c3ccc(OC)cc3)cc3ccccc23)CC1.Cl`, the melting point was in the range of 109 to 114 °C.

As for `CCN1CCN(c2nc(-c3ccc(C#N)cc3)cc3ccccc23)CC1` (as salt: hydrochloride) [Example 62, 3-(4-Cyanophenyl)-1-(4-Ethylpiperazin-1-Yl)Isoquinoline Hydrochloride], the melting point is 241 °C (dec.).

As for `CCCCNC(=O)c1ccc(-c2cc3ccsc3c(N3CCN(CC)CC3)n2)cc1` (as salt: hydrochloride) [Example 452, 7-(4-ethylpiperazin-1-yl)-5-[4-(N-butylcarbamoyl)phenyl]thieno[2,3-c]pyridine dihydrochloride], the melting point fell in the range of 127.5 to 128 °C.

In turn, `COc1ccc(-c2cc3ccccc3c(N(C)CCN(C)C)n2)cc1` (as salt: hydrochloride) [Example 319, 1-{N-[2-(2-dimethylamino)ethyl]-N-methylamino}-3-(4-methoxyphenyl)isoquinoline dihydrochloride] showed a melting point of 160 to 162 °C.

Molecule `CCN1CCN(c2nc(-c3cc(OC)cc(OC)c3)cc3ccccc23)CC1` (as salt: hydrochloride) [Example 15, 3-(3,5-dimethoxyphenyl)-1-(4-ethylpiperazin-1-yl)isoquinoline Dihydrochloride] returned a melting point of 121 to 123 °C.

`CCN1CCN(c2nc(-c3ccc(C(O)C4CCCCC4)cc3)cc3ccccc23)CC1` (stereo not drawn) (as salt: hydrochloride) [Example 409, 1-(4-ethylpiperazin-1-yl)-3-[4-(cyclohexylhydroxymethyl)phenyl]isoquinoline] displayed a melting point of 153 to 155 °C.

For the molecule `CCN1CCN(c2nc(-c3ccc(C4CCOCC4)nc3)cc3ccccc23)CC1` (as salt: oxalate) [Example 156, 3-[2-(tetrahydropyran-4-yl)pyridin-5-yl]-1-(4-ethylpiperazin-1-yl)isoquinoline oxalate], the melting point was in the range of 158 to 160 °C.

`CCC(C)NS(=O)(=O)c1ccc(-c2cc3ccccc3c(N3CCN(CC)CC3)n2)cc1` (stereo not drawn) (as salt: hydrochloride) [Example 360, 1-(4-ethylpiperazin-1-yl)-3-{4-[N-(1-methylpropyl)sulfamoyl]phenyl}isoquinoline dihydrochloride] came in with a melting point of 155 to 156 °C.

For the molecule `CCN1CCN(c2nc(-c3ccc(N4CCC(O)CC4)cc3)cc3ccccc23)CC1` (as salt: hydrochloride) [Example 97, 1-(4-Ethylpiperazin-1-yl)-3-[4-(4-hydroxypiperidin-1-yl)phenyl]isoquinoline Trihydrochloride], the melting point was found to be 178 °C.

`CCN1CCN(c2nc(-c3ccc(OCC(C)O)cc3)cc3cccnc23)CC1` (stereo in doubt) (as salt: hydrochloride) [Example 246, 8-(1-ethylpiperazin-4-yl)-6-{4-[(S)-2-hydroxypropoxy}phenyl]-1,7-naphthyridine Dihydrochloride] displayed a melting point of 136 to 140 °C.

The molecule `CCCCC(=O)c1ccc(-c2cc3ccsc3c(N3CCN(CC)CC3)n2)cc1` (as salt: hydrochloride) [Example 271, 7-(1-ethylpiperazin-4-yl)-5-(4-pentanoylphenyl)phenyl)thieno[2,3-c]pyridine dihydrochloride] registered a melting point of 109 to 114 °C.

For the molecule `CCN1CCN(c2nc(-c3ccc(S(C)(=O)=O)cc3)cc3ccccc23)CC1` (as salt: hydrochloride) [Example 342, 1-(4-ethylpiperazin-1-yl)-3-(4-methylsulfonylphenyl)isoquinoline dihydrochloride], the melting point was 216.5 to 218 °C (dec.).

`CCN1CCN(c2nc(-c3ccc(CCCOC)cc3)cc3ccccc23)CC1` (as salt: hydrochloride) [Example 333, 1-(4-ethylpiperazin-1-yl)-3-[4-(3-(methoxypropyl)phenyl]isoquinolinedihydrochloride]: the melting point was 191 to 192 °C (dec.).

For the molecule `CCN1CCN(c2nc(-c3ccc(OCCO)cc3)cc3cscc23)CC1` (as salt: oxalate) [Example 278, 4-(4-ethylpiperazin-1-yl)-6-[4-(2-hydroxyethoxy)phenyl]thieno-[3,4-c]pyridine oxalate], the melting point is 130 °C (dec.).

`COc1ccc(-c2cc3ccccc3c(N3CCN(CC(N)=O)CC3)n2)cc1` (as salt: hydrochloride) [Example 314, 1-[1-(carbamoylmethyl)piperazin-4-yl]-3-(4-methoxyphenyl)isoquinoline dihydrochloride]: the melting point fell in the range of 153 to 155 °C.

Regarding `CCN1CCN(c2nc(-c3ccc(CCCCO)cc3)cc3ccccc23)CC1` (as salt: hydrochloride) [Example 23, 3-[4-(4-hydroxybutyl)phenyl]-1-(4-ethylpiperazin-1-yl)isoquinoline hydrochloride], the melting point fell in the range of 140 to 144 °C.

Consider `CCN1CCN(c2nc(-c3ccc(CCC(C)(C)O)cc3)cc3sccc23)CC1` (as salt: hydrochloride) [Example 291, 4-[4-ethylpiperazin-1-yl)-6-[4-(3-hydroxy-3-methylbutyl)phenyl]thieno[3,2-c]pyridine dihydrochloride], for which the melting point was in the range of 116 to 117.5 °C.

As for `CCN1CCN(c2nc(-c3ccc(S(=O)(=O)N(C)C)cc3)cc3ccccc23)CC1` (as salt: hydrochloride) [Example 362, 1-(4-ethylpiperazin-1-yl)-3-[4-(N,N-dimethylsulfamoyl)phenyl]isoquinoline dihydrochloride], the melting point was 155 to 156 °C.

Take `CCN1CCN(c2nc(-c3ccc(CCCO)c(Cl)c3)cc3ccccc23)CC1` (as salt: hydrochloride) [Example 30, 3-[3-chloro-4-(3-hydroxypropyl)phenyl]-1-(4-ethylpiperazin-1-yl)isoquinoline hydrochloride]: the melting point lay within 123 to 124 °C.
